According to PMC6593445, “Promiscuous terpene synthases from Prunella vulgaris highlight the importance of substrate and compartment switching in terpene synthase evolution” (The New Phytologist, 2019):

Key:
Test in all cases: in vitro TPS assay, GC-MS of products
Assay type in all cases: biochemical
Conditions in all cases: 10 mM MgCl2, 100 mM KCl, 5 mM DTT, 50 mM HEPES pH 7.2, 30 °C, 4 h
PvHVS = target: T1, PvHVS (Prunella vulgaris, UniProt A0A3Q8J789)
T1 construct: N-terminal truncation removing 43 aa predicted plastid transit peptide; pET28b+, E. coli C41, Ni-NTA purified; TPS-a diterpene synthase
T1 sequence (A0A3Q8J789 44-599): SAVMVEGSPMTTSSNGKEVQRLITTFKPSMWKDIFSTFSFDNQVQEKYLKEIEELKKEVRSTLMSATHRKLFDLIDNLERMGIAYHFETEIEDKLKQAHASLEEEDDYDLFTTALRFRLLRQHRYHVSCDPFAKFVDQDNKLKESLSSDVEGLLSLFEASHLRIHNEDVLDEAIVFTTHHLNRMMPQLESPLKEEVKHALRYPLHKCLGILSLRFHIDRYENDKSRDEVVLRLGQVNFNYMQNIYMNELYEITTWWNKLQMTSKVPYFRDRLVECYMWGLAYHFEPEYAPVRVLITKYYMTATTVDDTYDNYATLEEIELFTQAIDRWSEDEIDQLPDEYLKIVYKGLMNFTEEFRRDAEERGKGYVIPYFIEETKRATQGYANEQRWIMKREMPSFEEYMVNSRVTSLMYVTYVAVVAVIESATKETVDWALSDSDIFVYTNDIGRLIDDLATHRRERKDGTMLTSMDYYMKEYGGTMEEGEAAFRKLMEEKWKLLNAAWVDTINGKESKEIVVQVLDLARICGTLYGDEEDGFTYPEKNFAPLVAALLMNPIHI

PvTPS2 = target: T2, PvTPS2 (Prunella vulgaris, UniProt A0A3S8D7T7)
T2 construct: N-terminal truncation removing 48 aa predicted plastid transit peptide; pET28b+, E. coli C41, Ni-NTA purified; TPS-a subfamily
T2 sequence (A0A3S8D7T7 49-597): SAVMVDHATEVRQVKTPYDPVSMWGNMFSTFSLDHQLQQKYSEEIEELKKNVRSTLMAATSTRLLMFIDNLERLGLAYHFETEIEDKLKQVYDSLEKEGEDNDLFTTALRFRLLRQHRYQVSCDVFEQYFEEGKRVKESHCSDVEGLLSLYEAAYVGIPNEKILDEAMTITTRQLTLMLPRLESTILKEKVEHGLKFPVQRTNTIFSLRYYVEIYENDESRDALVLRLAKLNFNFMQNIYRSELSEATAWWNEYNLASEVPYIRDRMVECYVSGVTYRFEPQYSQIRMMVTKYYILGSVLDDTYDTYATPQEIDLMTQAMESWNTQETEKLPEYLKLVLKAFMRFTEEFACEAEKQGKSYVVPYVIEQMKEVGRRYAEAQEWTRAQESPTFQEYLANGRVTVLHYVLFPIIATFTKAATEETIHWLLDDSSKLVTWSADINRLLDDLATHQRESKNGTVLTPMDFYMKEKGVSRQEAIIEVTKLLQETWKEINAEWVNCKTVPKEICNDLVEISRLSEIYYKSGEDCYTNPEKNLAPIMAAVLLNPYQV

PvTPS5 = target: T3, PvTPS5 (Prunella vulgaris, UniProt A0A3S8D7W9)
T3 construct: full length, cytosolic (no transit peptide); pET28b+, E. coli C41, Ni-NTA purified; TPS-a subfamily
T3 sequence (A0A3S8D7W9 1-555): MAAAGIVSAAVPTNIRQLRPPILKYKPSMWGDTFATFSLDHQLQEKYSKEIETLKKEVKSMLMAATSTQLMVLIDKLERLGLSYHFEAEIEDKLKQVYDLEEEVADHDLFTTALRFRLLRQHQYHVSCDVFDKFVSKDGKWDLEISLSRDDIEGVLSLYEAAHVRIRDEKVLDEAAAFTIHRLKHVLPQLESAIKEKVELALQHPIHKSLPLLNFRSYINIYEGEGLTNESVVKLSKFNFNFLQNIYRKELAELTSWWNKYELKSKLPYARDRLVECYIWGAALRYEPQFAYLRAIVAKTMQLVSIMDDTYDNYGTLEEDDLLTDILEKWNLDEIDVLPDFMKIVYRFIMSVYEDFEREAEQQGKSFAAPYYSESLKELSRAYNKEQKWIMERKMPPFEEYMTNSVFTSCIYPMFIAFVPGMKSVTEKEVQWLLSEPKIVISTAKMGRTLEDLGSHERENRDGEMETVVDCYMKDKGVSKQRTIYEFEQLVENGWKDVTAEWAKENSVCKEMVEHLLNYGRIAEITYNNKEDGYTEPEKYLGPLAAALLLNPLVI

PvTPS4 = target: T4, PvTPS4 (Prunella vulgaris, UniProt A0A3S8D7W5)
T4 construct: full length, cytosolic (no transit peptide); pET28b+, E. coli C41, Ni-NTA purified; TPS-a subfamily
T4 sequence (A0A3S8D7W5 entry or part of it): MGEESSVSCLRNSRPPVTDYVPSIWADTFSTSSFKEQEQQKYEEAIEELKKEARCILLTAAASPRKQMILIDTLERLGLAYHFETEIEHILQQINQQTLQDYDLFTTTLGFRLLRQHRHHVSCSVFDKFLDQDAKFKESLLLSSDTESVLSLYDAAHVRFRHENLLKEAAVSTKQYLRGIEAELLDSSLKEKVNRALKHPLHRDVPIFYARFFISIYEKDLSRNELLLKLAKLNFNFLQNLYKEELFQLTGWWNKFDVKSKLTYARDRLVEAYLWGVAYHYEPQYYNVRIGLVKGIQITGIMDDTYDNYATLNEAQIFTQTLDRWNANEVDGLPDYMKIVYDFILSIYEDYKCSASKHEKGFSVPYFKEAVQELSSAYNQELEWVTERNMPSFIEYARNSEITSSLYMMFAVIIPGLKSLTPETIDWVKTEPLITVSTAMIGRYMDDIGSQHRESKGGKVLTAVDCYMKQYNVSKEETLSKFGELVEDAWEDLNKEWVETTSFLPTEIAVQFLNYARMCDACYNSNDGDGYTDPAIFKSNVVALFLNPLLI

Row | SMILES | in vitro TPS assay, GC-MS of products (PvHVS) | in vitro TPS assay, GC-MS of products (PvTPS2) | in vitro TPS assay, GC-MS of products (PvTPS5) | in vitro TPS assay, GC-MS of products (PvTPS4)
1 | CC(C)=CCC/C(C)=C/CC/C(C)=C/CC/C(C)=C/COP(=O)(O)OP(=O)(O)O [GGPP] | Only PvTPS2 and PvHVS were active in vitro and in N. benthamiana against GGPP | Only PvTPS2 and PvHVS were active in vitro and in N. benthamiana against GGPP | – | –
2 | CC(C)=CCC/C(C)=C\COP(=O)(O)OP(=O)(O)O [NPP] | – | – | all four enzymes were found to catalyse cyclisation of NPP | all four enzymes were found to catalyse cyclisation of NPP
3 | CC(C)=CCC/C(C)=C/CC/C(C)=C/COP(=O)(O)OP(=O)(O)O [(E,E)‐FPP] | All four enzymes were active against (E,E)‐FPP both in vitro, and in N. benthamiana | All four enzymes were active against (E,E)‐FPP both in vitro, and in N. benthamiana | All four enzymes were active against (E,E)‐FPP both in vitro, and in N. benthamiana | All four enzymes were active against (E,E)‐FPP both in vitro, and in N. benthamiana
